Test results published in PubChem BioAssay (NCI).
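GI50 = concentration required for 50% inhibition of growth. The concentration for full growth arrest is given as TGI.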

What was measured:
Test in all cases: NCI tumour cell line growth inhibition, 384-well format
K-562 leukemia = test system: K-562 leukemia
ACHN renal = test system: ACHN renal
NCI-H322M lung = test system: NCI-H322M lung
T-47D breast = test system: T-47D breast
SF-295 CNS = test system: SF-295 CNS
DU-145 prostate = test system: DU-145 prostate
HL-60(TB) leukemia = test system: HL-60(TB) leukemia
RXF 393 renal = test system: RXF 393 renal
HCC-2998 colon = test system: HCC-2998 colon
MCF7 breast = test system: MCF7 breast
NCI/ADR-RES ovarian = test system: NCI/ADR-RES ovarian
LOX IMVI melanoma = test system: LOX IMVI melanoma
SF-539 CNS = test system: SF-539 CNS
MDA-MB-468 breast = test system: MDA-MB-468 breast
UACC-62 melanoma = test system: UACC-62 melanoma
A549 NSCLC = test system: A549 NSCLC
SF-268 CNS = test system: SF-268 CNS
786-0 renal = test system: 786-0 renal
OVCAR-5 ovarian = test system: OVCAR-5 ovarian
MOLT-4 leukemia = test system: MOLT-4 leukemia
SK-MEL-5 melanoma = test system: SK-MEL-5 melanoma
SW-620 colon = test system: SW-620 colon
SNB-75 CNS = test system: SNB-75 CNS
UO-31 renal = test system: UO-31 renal
NCI-H522 lung = test system: NCI-H522 lung
TK-10 renal = test system: TK-10 renal
CCRF-CEM leukemia = test system: CCRF-CEM leukemia
NCI-H226 lung = test system: NCI-H226 lung
SR leukemia = test system: SR leukemia
A498 renal = test system: A498 renal
KM12 colon = test system: KM12 colon
UACC-257 melanoma = test system: UACC-257 melanoma
HOP-92 NSCLC = test system: HOP-92 NSCLC
COLO 205 colon = test system: COLO 205 colon
MALME-3M melanoma = test system: MALME-3M melanoma
HCT-15 colon = test system: HCT-15 colon
OVCAR-3 ovarian = test system: OVCAR-3 ovarian
CAKI-1 renal = test system: CAKI-1 renal
NCI-H23 lung = test system: NCI-H23 lung
SNB-19 CNS = test system: SNB-19 CNS
RPMI-8226 leukemia = test system: RPMI-8226 leukemia
HOP-62 NSCLC = test system: HOP-62 NSCLC
MDA-MB-231 breast = test system: MDA-MB-231 breast
HS 578T breast = test system: HS 578T breast
OVCAR-4 ovarian = test system: OVCAR-4 ovarian
SN12C renal = test system: SN12C renal
IGROV1 ovarian = test system: IGROV1 ovarian
SK-MEL-28 melanoma = test system: SK-MEL-28 melanoma
NCI-H460 NSCLC = test system: NCI-H460 NSCLC
PC-3 prostate = test system: PC-3 prostate
SK-OV-3 ovarian = test system: SK-OV-3 ovarian
EKVX NSCLC = test system: EKVX NSCLC
BT-549 breast = test system: BT-549 breast
HT29 colon = test system: HT29 colon
OVCAR-8 ovarian = test system: OVCAR-8 ovarian
MDA-MB-435 melanoma = test system: MDA-MB-435 melanoma
M14 melanoma = test system: M14 melanoma

`[2H]C([2H])([2H])NC(=O)c1nnc(NC(=O)C2CC2)cc1Nc1cccc(-c2ncn(C)n2)c1OC` showed a GI50 (K-562 leukemia) of 43.4 µM, a TGI (K-562 leukemia) greater than 100 µM and a GI50 (ACHN renal) of 16.6 µM. It also gave a TGI (ACHN renal) greater than 100 µM, a GI50 (NCI-H322M lung) of 23.3 µM and a TGI (NCI-H322M lung) greater than 100 µM. For the same compound, the GI50 (T-47D breast) was greater than 100 µM, the TGI (T-47D breast) was greater than 100 µM and the GI50 (SF-295 CNS) was 33.2 µM. The TGI (SF-295 CNS) was greater than 100 µM, the GI50 (DU-145 prostate) was 16.4 µM and the TGI (DU-145 prostate) was greater than 100 µM. It also gave a GI50 (HL-60(TB) leukemia) of 10.9 µM, a TGI (HL-60(TB) leukemia) of 26.7 µM and a GI50 (RXF 393 renal) greater than 100 µM. For the same compound, the TGI (RXF 393 renal) was greater than 100 µM, the GI50 (HCC-2998 colon) was greater than 100 µM and the TGI (HCC-2998 colon) was greater than 100 µM. The GI50 (MCF7 breast) was greater than 100 µM, the TGI (MCF7 breast) was greater than 100 µM and the GI50 (NCI/ADR-RES ovarian) was 37.4 µM. For the same compound, the TGI (NCI/ADR-RES ovarian) was greater than 100 µM, the GI50 (LOX IMVI melanoma) was 25 µM and the TGI (LOX IMVI melanoma) was greater than 100 µM. For the same compound, the GI50 (SF-539 CNS) was 79.2 µM, the TGI (SF-539 CNS) was greater than 100 µM and the GI50 (MDA-MB-468 breast) was 13.3 µM. For the same compound, the TGI (MDA-MB-468 breast) was 42.3 µM, the GI50 (UACC-62 melanoma) was 25.5 µM and the TGI (UACC-62 melanoma) was greater than 100 µM. The GI50 (A549 NSCLC) was 84.4 µM, the TGI (A549 NSCLC) was greater than 100 µM and the GI50 (SF-268 CNS) was greater than 100 µM. It also gave a TGI (SF-268 CNS) greater than 100 µM, a GI50 ([…]-0 renal) of 66.2 µM and a TGI (786-0 renal) greater than 100 µM. The GI50 (OVCAR-5 ovarian) was greater than 100 µM, the TGI (OVCAR-5 ovarian) was greater than 100 µM and the GI50 (MOLT-4 leukemia) was 15.9 µM. The TGI (MOLT-4 leukemia) was 36.8 µM, the GI50 (SK-MEL-5 melanoma) was 36.8 µM and the TGI (SK-MEL-5 melanoma) was greater than 100 µM. The GI50 (SW-620 colon) was 93.5 µM, the TGI (SW-620 colon) was greater than 100 µM and the GI50 (SNB-75 CNS) was 87.9 µM. It also gave a TGI (SNB-75 CNS) greater than 100 µM, a GI50 (UO-31 renal) greater than 100 µM and a TGI (UO-31 renal) greater than 100 µM. It also gave a GI50 (NCI-H522 lung) of 79.1 µM, a TGI (NCI-H522 lung) greater than 100 µM and a GI50 (TK-10 renal) greater than 100 µM. It also gave a TGI (TK-10 renal) greater than 100 µM, a GI50 (CCRF-CEM leukemia) of 16.6 µM and a TGI (CCRF-CEM leukemia) of 48.6 µM. The GI50 (NCI-H226 lung) was 43.9 µM, the TGI (NCI-H226 lung) was greater than 100 µM and the GI50 (SR leukemia) was 29.9 µM. For the same compound, the TGI (SR leukemia) was greater than 100 µM, the GI50 (A498 renal) was 6.3 µM and the TGI (A498 renal) was greater than 100 µM. The GI50 (KM12 colon) was 30.2 µM, the TGI (KM12 colon) was greater than 100 µM and the GI50 (UACC-257 melanoma) was greater than 100 µM. For the same compound, the TGI (UACC-257 melanoma) was greater than 100 µM, the GI50 (HOP-92 NSCLC) was 25.4 µM and the TGI (HOP-92 NSCLC) was greater than 100 µM. For the same compound, the GI50 (COLO 205 colon) was greater than 100 µM, the TGI (COLO 205 colon) was greater than 100 µM and the GI50 (MALME-3M melanoma) was 32.2 µM. The TGI (MALME-3M melanoma) was greater than 100 µM, the GI50 (HCT-15 colon) was 12.9 µM and the TGI (HCT-15 colon) was greater than 100 µM. The GI50 (OVCAR-3 ovarian) was 41.6 µM, the TGI (OVCAR-3 ovarian) was greater than 100 µM and the GI50 (CAKI-1 renal) was 14.6 µM. It also gave a TGI (CAKI-1 renal) greater than 100 µM, a GI50 (NCI-H23 lung) of 43.7 µM and a TGI (NCI-H23 lung) greater than 100 µM. For the same compound, the GI50 (SNB-19 CNS) was 87.4 µM, the TGI (SNB-19 CNS) was greater than 100 µM and the GI50 (RPMI-8226 leukemia) was 3.93 µM. The TGI (RPMI-8226 leukemia) was 27.6 µM, the GI50 (HOP-62 NSCLC) was 25.1 µM and the TGI (HOP-62 NSCLC) was 84.9 µM. It also gave a GI50 (MDA-MB-231 breast) of 29.2 µM, a TGI (MDA-MB-231 breast) greater than 100 µM and a GI50 (HS 578T breast) of 18 µM. For the same compound, the TGI (HS 578T breast) was greater than 100 µM, the GI50 (OVCAR-4 ovarian) was greater than 100 µM and the TGI (OVCAR-4 ovarian) was greater than 100 µM. The GI50 (SN12C renal) was 32.6 µM, the TGI (SN12C renal) was greater than 100 µM and the GI50 (IGROV1 ovarian) was 26.4 µM. It also gave a TGI (IGROV1 ovarian) greater than 100 µM, a GI50 (SK-MEL-28 melanoma) of 72.9 µM and a TGI (SK-MEL-28 melanoma) greater than 100 µM. It also gave a GI50 (NCI-H460 NSCLC) of 21.3 µM, a TGI (NCI-H460 NSCLC) greater than 100 µM and a GI50 (PC-3 prostate) of 77.9 µM. The TGI (PC-3 prostate) was greater than 100 µM, the GI50 (SK-OV-3 ovarian) was 5.93 µM and the TGI (SK-OV-3 ovarian) was 87.6 µM. It also gave a GI50 (EKVX NSCLC) greater than 100 µM, a TGI (EKVX NSCLC) greater than 100 µM and a GI50 (BT-549 breast) greater than 100 µM. For the same compound, the TGI (BT-549 breast) was greater than 100 µM, the GI50 (HT29 colon) was greater than 100 µM and the TGI (HT29 colon) was greater than 100 µM. For the same compound, the GI50 (OVCAR-8 ovarian) was 43.6 µM, the TGI (OVCAR-8 ovarian) was greater than 100 µM and the GI50 (MDA-MB-435 melanoma) was greater than 100 µM. For the same compound, the TGI (MDA-MB-435 melanoma) was greater than 100 µM, the GI50 (M14 melanoma) was 22.8 µM and the TGI (M14 melanoma) was greater than 100 µM.
